# Results from patent publication US20030118577A1, “Use of analogues of superoxide dismutase for treating hepatocellular insufficiencies” (priority 2000, published 2003).
# Test system: acute hepatic insufficiency induced by acetaminophen
# Assay: Survival of mice after intraperitoneal acetaminophen (acute hepatic insufficiency)
# Experimental: The intraperitoneal injection of acetaminophen into mice induces a severe hepatotoxicity, the degree of which may be evaluated by the survival of the animals, measuring transaminase activities, and macroscopic and microscopic examination of the livers.
# The acetaminophen in solution at 100 mg/ml in PBS at pH 7.4 is administered by the intraperitoneal route.
# In a first series of experiments, a group of mice received a dose of 1000 mg/kg of acetaminophen; a second group received a dose of 1000 mg/kg of acetaminophen and a dose of 10 mg/kg of MnTBAP administered either 2 h before the acetaminophen or 6 h after; a control group received either MnTBAP alone (10 mg/kg), or PBS alone.
# The survival of the animals is monitored for 24 hours after the administration of acetaminophen.
# The effect of N-acetyl-L-cysteine (NAC), of CuDIPS, and of MnTBAP on the survival of mice after intraperitoneal injection of 1000 mg/kg of acetaminophen (APAP) was compared.
# MnTBAP, NAC, or CuDIPS are administered in the form of a bolus, preventively, 2 hours before (P) or, curatively, 6 hours after (C) the acetaminophen.
# The survival of the animals is monitored for 24 hours after administration of acetaminophen.
compound,measurement,setting,value
"CC(=O)N[C@@H](CS)C(=O)O [NAC, N-acetyl-L-cysteine]","activity on survival, curative versus preventive administration","APAP 1000 mg/kg, 6 hours after (C) or 2 hours before (P)",only active preventively
same,percentage of surviving animals,"Group X: APAP 1000 mg/kg, NAC 100 mg/kg (P), time 0 h",100%
same,percentage of surviving animals,"Group X: APAP 1000 mg/kg, NAC 100 mg/kg (P), time 6 h",100%
same,percentage of surviving animals,"Group X: APAP 1000 mg/kg, NAC 100 mg/kg (P), time 8 h",100%
same,percentage of surviving animals,"Group X: APAP 1000 mg/kg, NAC 100 mg/kg (P), time 9 h",100%
same,percentage of surviving animals,"Group X: APAP 1000 mg/kg, NAC 100 mg/kg (P), time 10 h",100%
same,percentage of surviving animals,"Group X: APAP 1000 mg/kg, NAC 100 mg/kg (P), time 11 h",100%
same,percentage of surviving animals,"Group X: APAP 1000 mg/kg, NAC 100 mg/kg (P), time 12 h",100%
same,percentage of surviving animals,"Group X: APAP 1000 mg/kg, NAC 100 mg/kg (P), time 13 h",100%
same,percentage of surviving animals,"Group X: APAP 1000 mg/kg, NAC 100 mg/kg (P), time 14 h",90%
same,percentage of surviving animals,"Group X: APAP 1000 mg/kg, NAC 100 mg/kg (P), time 15 h",80%
same,percentage of surviving animals,"Group X: APAP 1000 mg/kg, NAC 100 mg/kg (P), time 16 h",60%
same,percentage of surviving animals,"Group X: APAP 1000 mg/kg, NAC 100 mg/kg (P), time 17 h",60%
same,percentage of surviving animals,"Group X: APAP 1000 mg/kg, NAC 100 mg/kg (P), time 18 h",50%
same,percentage of surviving animals,"Group X: APAP 1000 mg/kg, NAC 100 mg/kg (P), time 20 h",40%
same,percentage of surviving animals,"Group X: APAP 1000 mg/kg, NAC 100 mg/kg (P), time 22 h",40%
same,percentage of surviving animals,"Group X: APAP 1000 mg/kg, NAC 100 mg/kg (P), time 24 h",40%
same,percentage of surviving animals,"Group XI: APAP 1000 mg/kg, NAC 200 mg/kg (P), time 0 h",100%
same,percentage of surviving animals,"Group XI: APAP 1000 mg/kg, NAC 200 mg/kg (P), time 6 h",100%
same,percentage of surviving animals,"Group XI: APAP 1000 mg/kg, NAC 200 mg/kg (P), time 8 h",100%
same,percentage of surviving animals,"Group XI: APAP 1000 mg/kg, NAC 200 mg/kg (P), time 9 h",100%
same,percentage of surviving animals,"Group XI: APAP 1000 mg/kg, NAC 200 mg/kg (P), time 10 h",100%
same,percentage of surviving animals,"Group XI: APAP 1000 mg/kg, NAC 200 mg/kg (P), time 11 h",90%
same,percentage of surviving animals,"Group XI: APAP 1000 mg/kg, NAC 200 mg/kg (P), time 12 h",90%
same,percentage of surviving animals,"Group XI: APAP 1000 mg/kg, NAC 200 mg/kg (P), time 13 h",90%
same,percentage of surviving animals,"Group XI: APAP 1000 mg/kg, NAC 200 mg/kg (P), time 14 h",90%
same,percentage of surviving animals,"Group XI: APAP 1000 mg/kg, NAC 200 mg/kg (P), time 15 h",90%
same,percentage of surviving animals,"Group XI: APAP 1000 mg/kg, NAC 200 mg/kg (P), time 16 h",80%
same,percentage of surviving animals,"Group XI: APAP 1000 mg/kg, NAC 200 mg/kg (P), time 17 h",80%
same,percentage of surviving animals,"Group XI: APAP 1000 mg/kg, NAC 200 mg/kg (P), time 18 h",60%
same,percentage of surviving animals,"Group XI: APAP 1000 mg/kg, NAC 200 mg/kg (P), time 20 h",60%
same,percentage of surviving animals,"Group XI: APAP 1000 mg/kg, NAC 200 mg/kg (P), time 22 h",60%
same,percentage of surviving animals,"Group XI: APAP 1000 mg/kg, NAC 200 mg/kg (P), time 24 h",60%
same,percentage of surviving animals,"Group XII: APAP 1000 mg/kg, NAC 300 mg/kg (P), time 0 h",100%
same,percentage of surviving animals,"Group XII: APAP 1000 mg/kg, NAC 300 mg/kg (P), time 6 h",100%
same,percentage of surviving animals,"Group XII: APAP 1000 mg/kg, NAC 300 mg/kg (P), time 8 h",100%
same,percentage of surviving animals,"Group XII: APAP 1000 mg/kg, NAC 300 mg/kg (P), time 9 h",90%
same,percentage of surviving animals,"Group XII: APAP 1000 mg/kg, NAC 300 mg/kg (P), time 10 h",90%
same,percentage of surviving animals,"Group XII: APAP 1000 mg/kg, NAC 300 mg/kg (P), time 11 h",90%
same,percentage of surviving animals,"Group XII: APAP 1000 mg/kg, NAC 300 mg/kg (P), time 12 h",90%
same,percentage of surviving animals,"Group XII: APAP 1000 mg/kg, NAC 300 mg/kg (P), time 13 h",90%
same,percentage of surviving animals,"Group XII: APAP 1000 mg/kg, NAC 300 mg/kg (P), time 14 h",90%
same,percentage of surviving animals,"Group XII: APAP 1000 mg/kg, NAC 300 mg/kg (P), time 15 h",90%
same,percentage of surviving animals,"Group XII: APAP 1000 mg/kg, NAC 300 mg/kg (P), time 16 h",90%
same,percentage of surviving animals,"Group XII: APAP 1000 mg/kg, NAC 300 mg/kg (P), time 17 h",90%
same,percentage of surviving animals,"Group XII: APAP 1000 mg/kg, NAC 300 mg/kg (P), time 18 h",80%
same,percentage of surviving animals,"Group XII: APAP 1000 mg/kg, NAC 300 mg/kg (P), time 20 h",80%
same,percentage of surviving animals,"Group XII: APAP 1000 mg/kg, NAC 300 mg/kg (P), time 22 h",80%
same,percentage of surviving animals,"Group XII: APAP 1000 mg/kg, NAC 300 mg/kg (P), time 24 h",80%
same,percentage of surviving animals,"Group XIII: APAP 1000 mg/kg, NAC 100 mg/kg (C), time 0 h",100%
same,percentage of surviving animals,"Group XIII: APAP 1000 mg/kg, NAC 100 mg/kg (C), time 6 h",100%
same,percentage of surviving animals,"Group XIII: APAP 1000 mg/kg, NAC 100 mg/kg (C), time 8 h",90%
same,percentage of surviving animals,"Group XIII: APAP 1000 mg/kg, NAC 100 mg/kg (C), time 9 h",80%
same,percentage of surviving animals,"Group XIII: APAP 1000 mg/kg, NAC 100 mg/kg (C), time 10 h",60%
same,percentage of surviving animals,"Group XIII: APAP 1000 mg/kg, NAC 100 mg/kg (C), time 11 h",50%
same,percentage of surviving animals,"Group XIII: APAP 1000 mg/kg, NAC 100 mg/kg (C), time 12 h",50%
same,percentage of surviving animals,"Group XIII: APAP 1000 mg/kg, NAC 100 mg/kg (C), time 13 h",40%
same,percentage of surviving animals,"Group XIII: APAP 1000 mg/kg, NAC 100 mg/kg (C), time 14 h",30%
same,percentage of surviving animals,"Group XIII: APAP 1000 mg/kg, NAC 100 mg/kg (C), time 15 h",20%
same,percentage of surviving animals,"Group XIII: APAP 1000 mg/kg, NAC 100 mg/kg (C), time 16 h",20%
same,percentage of surviving animals,"Group XIII: APAP 1000 mg/kg, NAC 100 mg/kg (C), time 17 h",20%
same,percentage of surviving animals,"Group XIII: APAP 1000 mg/kg, NAC 100 mg/kg (C), time 18 h",10%
same,percentage of surviving animals,"Group XIII: APAP 1000 mg/kg, NAC 100 mg/kg (C), time 20 h",10%
same,percentage of surviving animals,"Group XIII: APAP 1000 mg/kg, NAC 100 mg/kg (C), time 22 h",10%
same,percentage of surviving animals,"Group XIII: APAP 1000 mg/kg, NAC 100 mg/kg (C), time 24 h",10%
same,percentage of surviving animals,"Group XIV: APAP 1000 mg/kg, NAC 300 mg/kg (C), time 0 h",100%
same,percentage of surviving animals,"Group XIV: APAP 1000 mg/kg, NAC 300 mg/kg (C), time 6 h",100%
same,percentage of surviving animals,"Group XIV: APAP 1000 mg/kg, NAC 300 mg/kg (C), time 8 h",100%
same,percentage of surviving animals,"Group XIV: APAP 1000 mg/kg, NAC 300 mg/kg (C), time 9 h",90%
same,percentage of surviving animals,"Group XIV: APAP 1000 mg/kg, NAC 300 mg/kg (C), time 10 h",80%
same,percentage of surviving animals,"Group XIV: APAP 1000 mg/kg, NAC 300 mg/kg (C), time 11 h",80%
same,percentage of surviving animals,"Group XIV: APAP 1000 mg/kg, NAC 300 mg/kg (C), time 12 h",60%
same,percentage of surviving animals,"Group XIV: APAP 1000 mg/kg, NAC 300 mg/kg (C), time 13 h",40%
same,percentage of surviving animals,"Group XIV: APAP 1000 mg/kg, NAC 300 mg/kg (C), time 14 h",40%
same,percentage of surviving animals,"Group XIV: APAP 1000 mg/kg, NAC 300 mg/kg (C), time 15 h",40%
same,percentage of surviving animals,"Group XIV: APAP 1000 mg/kg, NAC 300 mg/kg (C), time 16 h",30%
same,percentage of surviving animals,"Group XIV: APAP 1000 mg/kg, NAC 300 mg/kg (C), time 17 h",30%
same,percentage of surviving animals,"Group XIV: APAP 1000 mg/kg, NAC 300 mg/kg (C), time 18 h",30%
same,percentage of surviving animals,"Group XIV: APAP 1000 mg/kg, NAC 300 mg/kg (C), time 20 h",20%
same,percentage of surviving animals,"Group XIV: APAP 1000 mg/kg, NAC 300 mg/kg (C), time 22 h",20%
same,percentage of surviving animals,"Group XIV: APAP 1000 mg/kg, NAC 300 mg/kg (C), time 24 h",20%
